In patent US20230346952A1, “CANNABINOID GLYCOSIDE PRODRUGS AND METHODS OF SYNTHESIS” (priority 2015, published 2023):

Columns and labels:
Assay in all cases: biochemical
[1] = target: T1, safety screen panel of human pharmacological targets (Homo sapiens, UniProt P25101); conditions: read-out: percent inhibition: ETA (h) (agonist radioligand)
T1 sequence (P25101 21-427): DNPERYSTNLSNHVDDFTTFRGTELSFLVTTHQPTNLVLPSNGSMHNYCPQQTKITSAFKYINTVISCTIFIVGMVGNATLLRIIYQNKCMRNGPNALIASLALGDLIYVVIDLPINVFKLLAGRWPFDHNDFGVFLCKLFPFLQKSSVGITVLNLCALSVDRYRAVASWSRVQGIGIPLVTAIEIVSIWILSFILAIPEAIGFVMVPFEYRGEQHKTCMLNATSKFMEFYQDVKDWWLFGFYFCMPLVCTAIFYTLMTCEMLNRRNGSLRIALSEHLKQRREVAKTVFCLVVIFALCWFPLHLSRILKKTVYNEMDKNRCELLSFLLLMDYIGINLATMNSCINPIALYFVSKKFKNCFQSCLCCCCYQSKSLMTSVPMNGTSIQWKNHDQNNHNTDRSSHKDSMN

[2] = target: T2, safety screen panel of human pharmacological targets (Rattus norvegicus, UniProt P21396); conditions: read-out: percent inhibition: MAO-A (antagonist radioligand)
T2 sequence (P21396 1-526): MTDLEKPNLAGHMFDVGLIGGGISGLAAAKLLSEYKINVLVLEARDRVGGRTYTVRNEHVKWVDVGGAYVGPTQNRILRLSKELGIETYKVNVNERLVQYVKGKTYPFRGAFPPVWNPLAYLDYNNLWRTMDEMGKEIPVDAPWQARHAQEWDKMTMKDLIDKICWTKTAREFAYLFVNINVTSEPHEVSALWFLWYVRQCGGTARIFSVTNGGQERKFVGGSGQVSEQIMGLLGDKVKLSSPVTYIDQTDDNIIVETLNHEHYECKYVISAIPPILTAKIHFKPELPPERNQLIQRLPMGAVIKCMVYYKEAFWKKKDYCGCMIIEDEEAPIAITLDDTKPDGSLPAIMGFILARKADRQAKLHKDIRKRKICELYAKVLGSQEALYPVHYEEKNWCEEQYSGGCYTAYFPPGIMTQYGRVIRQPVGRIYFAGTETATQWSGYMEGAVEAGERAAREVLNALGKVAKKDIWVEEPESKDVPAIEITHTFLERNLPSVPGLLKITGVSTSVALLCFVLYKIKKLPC

[3] = target: T3, safety screen panel of human pharmacological targets (Homo sapiens, UniProt P32238); conditions: read-out: percent inhibition: CCK1 (CCKA) (h) (agonist radioligand)
T3 sequence (P32238 1-428): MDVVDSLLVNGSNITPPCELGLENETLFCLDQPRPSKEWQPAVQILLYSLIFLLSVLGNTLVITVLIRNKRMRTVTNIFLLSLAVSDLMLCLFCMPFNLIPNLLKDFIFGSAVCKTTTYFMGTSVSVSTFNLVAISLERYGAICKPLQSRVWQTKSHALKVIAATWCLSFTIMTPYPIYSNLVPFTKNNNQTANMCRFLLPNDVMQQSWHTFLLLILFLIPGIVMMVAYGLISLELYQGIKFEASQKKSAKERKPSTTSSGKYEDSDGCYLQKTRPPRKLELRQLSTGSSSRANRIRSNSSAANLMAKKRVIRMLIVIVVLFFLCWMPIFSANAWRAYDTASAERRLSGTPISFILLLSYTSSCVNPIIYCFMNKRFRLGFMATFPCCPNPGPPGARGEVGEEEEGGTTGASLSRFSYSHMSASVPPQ

[4] = target: safety screen panel of human pharmacological targets (Homo sapiens, UniProt P31645); conditions: read-out: percent inhibition: 5-HT transporter (h) (antagonist radioligand)
safety screen panel of human pharmacological targets (Homo sapiens, UniProt P31645), sequence (P31645 whole entry): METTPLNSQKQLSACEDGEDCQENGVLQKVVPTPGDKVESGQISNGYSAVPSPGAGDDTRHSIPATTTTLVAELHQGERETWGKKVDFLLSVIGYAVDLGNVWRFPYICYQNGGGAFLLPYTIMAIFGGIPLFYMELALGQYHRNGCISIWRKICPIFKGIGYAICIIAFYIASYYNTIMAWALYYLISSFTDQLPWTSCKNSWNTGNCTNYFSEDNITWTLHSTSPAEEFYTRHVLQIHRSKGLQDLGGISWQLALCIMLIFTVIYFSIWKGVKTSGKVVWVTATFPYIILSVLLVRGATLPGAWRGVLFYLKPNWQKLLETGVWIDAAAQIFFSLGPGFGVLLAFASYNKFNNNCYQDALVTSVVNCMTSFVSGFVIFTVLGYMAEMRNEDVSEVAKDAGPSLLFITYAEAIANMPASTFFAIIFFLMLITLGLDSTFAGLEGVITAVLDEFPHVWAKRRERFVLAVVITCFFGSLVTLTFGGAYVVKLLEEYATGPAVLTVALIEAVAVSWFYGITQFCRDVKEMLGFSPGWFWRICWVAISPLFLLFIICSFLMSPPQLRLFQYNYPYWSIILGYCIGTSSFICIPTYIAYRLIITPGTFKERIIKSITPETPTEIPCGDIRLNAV

[5] = target: safety screen panel of human pharmacological targets (Homo sapiens, UniProt P34972); conditions: read-out: percent inhibition: CB2 (h) (agonist radioligand)
safety screen panel of human pharmacological targets (Homo sapiens, UniProt P34972), sequence (P34972 whole entry): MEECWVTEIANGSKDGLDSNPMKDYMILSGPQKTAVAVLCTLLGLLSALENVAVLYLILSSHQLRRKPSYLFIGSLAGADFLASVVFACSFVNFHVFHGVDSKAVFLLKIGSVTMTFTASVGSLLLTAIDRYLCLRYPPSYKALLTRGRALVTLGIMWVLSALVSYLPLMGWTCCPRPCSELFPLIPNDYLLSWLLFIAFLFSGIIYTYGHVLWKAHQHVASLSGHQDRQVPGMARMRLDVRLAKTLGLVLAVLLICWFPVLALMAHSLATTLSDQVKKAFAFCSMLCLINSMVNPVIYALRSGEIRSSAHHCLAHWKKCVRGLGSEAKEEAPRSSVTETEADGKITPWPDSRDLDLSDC

[6] = target: safety screen panel of human pharmacological targets (Homo sapiens, UniProt P43681); conditions: read-out: percent inhibition: N neuronal alpha 4beta 2 h) (agonist radioligand)
safety screen panel of human pharmacological targets (Homo sapiens, UniProt P43681), sequence (P43681 27-627): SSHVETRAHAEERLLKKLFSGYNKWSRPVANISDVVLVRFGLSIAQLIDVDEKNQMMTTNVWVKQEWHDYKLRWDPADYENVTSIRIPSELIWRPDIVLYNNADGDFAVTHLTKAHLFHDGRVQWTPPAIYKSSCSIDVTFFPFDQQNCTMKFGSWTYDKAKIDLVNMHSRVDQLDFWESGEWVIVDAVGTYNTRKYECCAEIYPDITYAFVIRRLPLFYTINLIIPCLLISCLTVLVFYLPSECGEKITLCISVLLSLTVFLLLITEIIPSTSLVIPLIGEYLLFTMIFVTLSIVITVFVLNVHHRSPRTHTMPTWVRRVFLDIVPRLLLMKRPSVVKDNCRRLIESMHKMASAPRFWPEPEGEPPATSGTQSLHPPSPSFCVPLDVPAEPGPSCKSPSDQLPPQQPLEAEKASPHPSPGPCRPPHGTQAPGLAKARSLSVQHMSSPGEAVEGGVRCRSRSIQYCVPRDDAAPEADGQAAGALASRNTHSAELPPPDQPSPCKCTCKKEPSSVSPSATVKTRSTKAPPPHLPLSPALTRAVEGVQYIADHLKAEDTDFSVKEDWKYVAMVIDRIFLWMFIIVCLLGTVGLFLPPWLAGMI

[7] = target: safety screen panel of human pharmacological targets (Homo sapiens, UniProt P21728); conditions: read-out: percent inhibition: D1 (h) (antagonist radioligand)
safety screen panel of human pharmacological targets (Homo sapiens, UniProt P21728), sequence (P21728 whole entry): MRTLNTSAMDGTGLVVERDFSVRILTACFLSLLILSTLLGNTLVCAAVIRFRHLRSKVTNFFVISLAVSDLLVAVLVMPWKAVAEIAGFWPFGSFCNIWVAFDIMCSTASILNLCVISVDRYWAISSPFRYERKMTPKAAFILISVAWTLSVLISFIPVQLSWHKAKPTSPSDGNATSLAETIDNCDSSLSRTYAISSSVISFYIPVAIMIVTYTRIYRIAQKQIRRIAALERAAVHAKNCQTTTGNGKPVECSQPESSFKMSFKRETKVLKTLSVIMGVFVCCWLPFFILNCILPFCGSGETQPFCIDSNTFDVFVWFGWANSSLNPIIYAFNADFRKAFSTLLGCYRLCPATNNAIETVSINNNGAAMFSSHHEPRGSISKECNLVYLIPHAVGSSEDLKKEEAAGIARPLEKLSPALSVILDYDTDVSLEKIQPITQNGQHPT

[8] = target: T4, safety screen panel of human pharmacological targets (Homo sapiens, UniProt P10275); conditions: read-out: percent inhibition: AR (h) (agonist radioligand)
T4 sequence (P10275 1-920): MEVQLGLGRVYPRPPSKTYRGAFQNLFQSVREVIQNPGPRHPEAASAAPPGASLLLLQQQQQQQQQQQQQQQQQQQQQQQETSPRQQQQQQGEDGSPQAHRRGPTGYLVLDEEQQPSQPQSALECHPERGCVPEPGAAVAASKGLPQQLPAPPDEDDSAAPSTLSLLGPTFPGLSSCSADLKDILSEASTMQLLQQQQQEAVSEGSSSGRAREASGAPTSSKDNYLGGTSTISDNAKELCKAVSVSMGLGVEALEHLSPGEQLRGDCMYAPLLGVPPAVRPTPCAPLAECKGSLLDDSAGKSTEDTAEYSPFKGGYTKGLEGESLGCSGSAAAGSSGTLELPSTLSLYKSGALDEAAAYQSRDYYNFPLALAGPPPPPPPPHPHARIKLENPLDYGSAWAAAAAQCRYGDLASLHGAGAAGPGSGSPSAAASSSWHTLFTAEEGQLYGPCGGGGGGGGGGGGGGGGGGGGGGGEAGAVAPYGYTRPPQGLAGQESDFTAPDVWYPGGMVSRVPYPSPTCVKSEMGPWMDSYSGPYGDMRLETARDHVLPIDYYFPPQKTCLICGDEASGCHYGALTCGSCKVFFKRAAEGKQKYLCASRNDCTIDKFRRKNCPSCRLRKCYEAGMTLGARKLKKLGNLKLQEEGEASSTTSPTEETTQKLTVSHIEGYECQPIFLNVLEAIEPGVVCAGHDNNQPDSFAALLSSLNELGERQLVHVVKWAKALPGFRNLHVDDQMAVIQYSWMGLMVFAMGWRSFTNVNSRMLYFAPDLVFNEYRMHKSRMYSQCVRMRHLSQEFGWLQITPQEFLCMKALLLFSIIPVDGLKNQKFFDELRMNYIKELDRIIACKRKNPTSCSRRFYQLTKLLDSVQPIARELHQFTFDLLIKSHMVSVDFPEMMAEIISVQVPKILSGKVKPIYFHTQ

[9] = target: safety screen panel of human pharmacological targets (Homo sapiens, UniProt P41595); conditions: read-out: percent inhibition: 5-HT2B (h) (agonist radioligand)
safety screen panel of human pharmacological targets (Homo sapiens, UniProt P41595), sequence (P41595 whole entry): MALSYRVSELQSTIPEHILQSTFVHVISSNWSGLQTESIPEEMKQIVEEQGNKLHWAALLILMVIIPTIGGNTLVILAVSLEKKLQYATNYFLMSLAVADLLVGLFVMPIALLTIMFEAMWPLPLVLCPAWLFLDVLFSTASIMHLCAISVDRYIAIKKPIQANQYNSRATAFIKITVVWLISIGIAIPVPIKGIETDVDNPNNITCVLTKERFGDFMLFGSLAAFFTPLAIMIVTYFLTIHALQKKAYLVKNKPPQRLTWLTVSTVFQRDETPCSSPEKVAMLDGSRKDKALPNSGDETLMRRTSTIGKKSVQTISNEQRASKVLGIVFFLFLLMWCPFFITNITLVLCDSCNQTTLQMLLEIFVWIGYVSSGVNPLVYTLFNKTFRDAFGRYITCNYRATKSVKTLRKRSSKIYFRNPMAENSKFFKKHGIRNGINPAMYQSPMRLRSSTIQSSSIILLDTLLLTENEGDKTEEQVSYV

SMILES	inhibition at 10 µM [1] [%]	inhibition at 10 µM [2] [%]	inhibition at 10 µM [3] [%]	inhibition at 10 µM [4] [%]	inhibition at 10 µM [5] [%]	inhibition at 10 µM [6] [%]	inhibition at 10 µM [7] [%]	inhibition at 10 µM [8] [%]	inhibition at 10 µM [9] [%]
CCCCCc1cc(O)c2c(c1)OC(C)(C)[C@@H]1CCC(C)=C[C@@H]21 [VB301, Δ9-Terahydrocannabinol, reference compound]	14	1	87	91	97	1	75	13	90
CCCCCc1cc(O[C@@H]2O[C@H](CO)[C@@H](O)[C@H](O)[C@H]2O)c2c(c1)OC(C)(C)[C@@H]1CCC(C)=C[C@@H]21 [VB302, Δ9THC-1-O-glucopyranoside]	-21	5	-31	-1	22	7	4	4	-5
CCCCCc1cc(O[C@@H]2O[C@H](CO[C@@H]3O[C@H](CO)[C@@H](O)[C@H](O)[C@H]3O)[C@@H](O[C@@H]3O[C@H](CO)[C@@H](O)[C@H](O)[C@H]3O)[C@H](O)[C@H]2O)c2c(c1)OC(C)(C)[C@@H]1CCC(C)=C[C@@H]21 [VB311]	9	2	17	3	17	-1	37	10	-7
